No end group written: not given here.
Assays:
[1] = tested on: SKBR3 cell line with high HER2 expression; assay: Confocal fluorescence imaging of cells incubated with Cy5.5-labeled peptides; assay type: cell-based; conditions: 50 μM Cy5.5-labeled peptide, 4°C, 20 min
Protocol: Four cell lines (SKBR3, MCF7, MDA-MB-468, and 293A) were seeded at a density of 3000 cells/mL into culture dishes and allowed to culture overnight with 5% CO2 at 37°C. Cell nuclei was stained with 1 mM Hoechst 33342 in 200 μL cell culture medium and incubated at 37°C for 15 min. Then, cells were incubated in culture medium with 50 μM Cy5.5-labeled peptide at 4°C for 20 min. Finally, cells were washed three times with cold PBS for observation. An Olympus FV1000-IX81 confocal-laser scanning microscope was used for confocal fluorescence imaging. An FV5-LAMAR 633 nm laser was used as the excitation source, and the emission wave length was collected at 690 nm. Hoechst 33342 was excited by a FV5-LD405-2 405 nm laser and collected within the range of 422–472 nm. All microscope parameters were identical for all observations of the binding ability of the various peptides.

HUVEC = assay: Toxicity of peptides to cells (S4 Fig); assay type: cell-based
SKBR3 = assay: Toxicity of peptides to cells (S4 Fig); assay type: cell-based
[2] = tested on: subcutaneous SKBR3 tumor xenografts; assay: In vivo and ex vivo fluorescence imaging of tumor targeting; parameters: species or system Balb/c female nude mice; conditions: for in vivo tumor fluorescence intensity (binding affinity increase) relative to the control Cy5.5: Cy5.5-labeled peptide 1 μM, 200 μL i.v. tail vein, 30 min postinjection, nude mice with SKBR3 xenografts, average n = 3; for ex vivo tumor fluorescence signal compared to controls: dissected tumors 30 min postinjection of Cy5.5-labeled peptide, n = 3
Protocol: Five to six-week-old Balb/c female nude mice were subcutaneously administered approximately 1 × 10^7 SKBR3 cells into the right hind leg, to establish xenografted tumors. Thereafter, tumor size was periodically measured with a caliper, and mice with tumors of 6−8 mm in diameter were selected for the following small animal experiments. Cy5.5–NHS (Lumiprobe) was used to label peptides. Either Cy5.5-peptides or the control Cy5.5 (1 μM, 200 μL) was intravenously injected into tumor-bearing nude mice via the tail vein. The mice were anesthetized and fluorescence signals measured using the small animal in vivo imaging system 30 min postinjection. Three mice were used for each peptide and for control. Near-infrared fluorescence imaging of tumor-bearing nude mice were taken with an exposure time of 50 ms, using the Cy5.5 filter sets (excitation: 673 nm; emission: 707 nm), and the intensities were quantified using the same software. Then, fluorescence images of the main organs and of tumors dissected from nude mice were individually taken as above.

HER2/biotin complex = HER2/biotin complex (Homo sapiens, UniProt P04626); assay: OBOC peptide library screening with magnetic beads; assay type: binding; conditions: library of 5184 sequences, HER2/biotin and magnetic streptavidin microspheres, 37°C, 2 h each step
Excerpt: The OBOC peptide library was designed based on binding free energies derived from the MD simulations of single and double mutants that are lower than the HER2/4665 complex. These mutations are in the 4665 fragment of pertuzumab from 55 to 64: EWVADVNPNX55X56X57X58X59X60N61X62X63X64K. According to computational calculations, the V, S, and M mutants have lower energies for X55. This is also the case for G, M, and Y for X56; G, A, and V for X57; S, F, and H for X58; I and R for X59; Y and W for X60; Q and F for X62; R, W, Q, and V for X63; and F and R for X64. The result is a 3*3*3*3*2*2*2*4*2 = 5184 library capacity.
The OBOC library synthesis and screening was performed as per the previously used method. Briefly, HBTU (4 mmol) and Fmoc-amino acid (4 mmol) reagent was dissolved in 0.4 mol/L N-Methyl morpholine in N,N-dimethylformamide and coupled with the solid phase supporting materials for 40 min during the coupling step. A 20% piperidine was used to remove the Fmoc group for 10 min in the deprotection step. During the OBOC library synthesis, the amino acid coupling process was carried out in the “split” step, while the deprotection process was carried out in the “pool” step. After elongation, a trifluoroacetic acid cleavage reagent was introduced to cleave the side chain protection group of each residue. […]

[3] = biological target: HER2 on cells (SKBR3, high expression; MCF7, medium expression) (human (endogenous in SKBR3), UniProt P04626 23-1255); assay: cell-based or functional assay
[4] = biological target: T1, HER2 protein (human epidermal growth factor receptor 2) (human, UniProt P04626 23-652); assay: SPR; SPR imaging (SPRi, PlexArray HT); peptides immobilised through an N-terminal cysteine on a bare gold chip, blocked with 5% nonfat milk; HER2 or HSA in PBST flowed at 0.625 to 20 μg/mL; KD from fitting association-dissociation curves; conditions: both partners purified
T1 construct: Human epidermal growth factor receptor 2 (HER2), bought protein; Surmise: the bought protein is probably a soluble extracellular domain, possibly tagged; source: bought: Sino Biological Inc., China

Cy5.5-58F63Y: peptide 58F63Y labeled with Cy5.5 (Cy5.5–NHS) (EWVADVNPNSGGFIYNQYFK; also: Cy5.5 label (via Cy5.5-NHS), position not given here)
fluorescent intensity of Cy5.5-peptides in SKBR3 cells [1]: strongest fluorescence

EWVADVNPNSGGFIYNQYFK [58F63Y]
toxicity to HUVEC cells (HUVEC): no toxicity | toxicity to SKBR3 cells (SKBR3): no toxicity | in vivo tumor fluorescence intensity (binding affinity increase) relative to the control Cy5.5 [2]: 5.09 fold | ex vivo tumor fluorescence signal compared to controls [2]: significantly high fluorescence signals | OBOC library screening result (bead identified by MALDI-TOF-MS/MS) (HER2/biotin complex): positive

EWVADVNPNSGGSIYNQRFK [compound 4665]
toxicity to HUVEC cells (HUVEC): no toxicity | toxicity to SKBR3 cells (SKBR3): no toxicity | in vivo tumor fluorescence intensity (binding affinity increase) relative to the control Cy5.5 [2]: 3.52 fold | ex vivo tumor fluorescence signal compared to controls [2]: significantly high fluorescence signals

EWVADVNPNSGGFIYNQYFK (also: Cy5.5 label (via Cy5.5-NHS), position not given here) [Cy5.5-labeled peptide 58F63Y]
in vivo fluorescence intensity of SKBR3 tumor xenografts in nude mice 30 min after injection of Cy5.5-58F63Y, relative to the control Cy5.5 [3]: 5.09 fold

B1: peptide 4665 (pertuzumab fragment Glu46 to Lys65) with N-terminal cysteine, for SPRi (peptide)
peptide: CEWVADVNPNSGGSIYNQRFK
notes: a cysteine residue linked to the amino terminal, for attachment to the bare gold chip; fragment of pertuzumab from Glu46 to Lys65 (beta hairpin); numbers count on: pertuzumab in PDB 1S78; source: synthetic peptide (Fmoc solid phase synthesis, HPLC purified)
Kd [4]: 9.86 µM

B2: peptide 58F (4665 with Ser58 to Phe) with N-terminal cysteine, for SPRi (peptide)
peptide: CEWVADVNPNSGGFIYNQRFK
notes: a cysteine residue linked to the amino terminal, for attachment to the bare gold chip; numbers count on: pertuzumab (first letter is 46); source: synthetic peptide (Fmoc solid phase synthesis, HPLC purified)
Kd [4]: 1.32 µM

B3: peptide 63Y (4665 with Arg63 to Tyr) with N-terminal cysteine, for SPRi (peptide)
peptide: CEWVADVNPNSGGSIYNQYFK
notes: as for B2
Kd [4]: 1.54 µM

B4: peptide 55V (4665 with Ser55 to Val) with N-terminal cysteine, for SPRi (peptide)
peptide: CEWVADVNPNVGGSIYNQRFK
notes: as for B2
Kd [4]: 64.6 µM

B5: peptide 58F63Y with N-terminal cysteine, for SPRi (peptide)
peptide: CEWVADVNPNSGGFIYNQYFK
notes: as for B2
Kd [4]: 0.536 µM

B6: peptide 55V63Y with N-terminal cysteine, for SPRi (peptide)
peptide: CEWVADVNPNVGGSIYNQYFK
notes: as for B2
Kd [4]: 8.16 µM

From PMC5390981, “Peptide probes derived from pertuzumab by molecular dynamics modeling for HER2 positive tumor imaging” (PLoS Computational Biology, 2017)
